# Laboratory results published in patent US9521847B2, “Synergistic weed control from applications of pyridine carboxylic acid herbicides and synthetic auxin herbicides and/or auxin transport inhibitors” (Dow AgroSciences LLC, priority 2014, dated 2016).
# Like-named read-outs stand apart in the source and are kept apart here.
# How the values were obtained:
# [1] = tested on: kochia (KCHSC, Kochia scoparia); assay: Greenhouse postemergence trial, % visual injury; type: in vivo
# Protocol: Following the protocol in Example 1, compound 1 and compound 2 were combined with 2,4 D EHE (EC) and applied to kochia (KCHSC, Kochia scoparia) and the phytotoxicity of the herbicidal compositions was measured.
# Following the protocol in Example 1, compound 1 (EC) and Compound 2 (SC) were combined with diflufenzopyr and applied to kochia (Kochia scoparia, KCHSC) and the phytotoxicity of the herbicidal composition was measured.
# [2] = tested on: spring rape (Brassica napus, BRSNN); assay: Greenhouse postemergence trial, % visual injury; conditions: for plant injury at 400 g/ha / plant injury at 5 g/ha: Brassica napus, post-emergence; for plant injury at 5 g/ha: read-out: % visual injury Obs
# winter wheat (TRZAW) = assay: Greenhouse postemergence trial, crop phytotoxicity (% visual injury); conditions: for % visual injury, Obs: TRZAW; for % visual injury Obs: crop, 5 g ae/ha alone, 20-22 d
# [3] = tested on: wild pansy (Viola tricolor, VIOTR); assay: Greenhouse postemergence trial, % visual injury; conditions: for % visual injury, Obs: VIOTR; for pest or weed control at 5 g/ha: Viola tricolor, post-emergence, read-out: % visual injury Obs
# [4] = tested on: Canadian thistle (CIRAR, Cirsium arvense); assay: Greenhouse postemergence trial, % visual injury; conditions: for pest or weed control at 400 g/ha / pest or weed control at 5 g/ha: Cirsium arvense, post-emergence; for % visual injury, Obs: CIRAR; for pest or weed control at 5 g/ha: read-out: % visual injury Obs;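 for all read-outs here: plants sprayed at second to third true leaf stage, injury scored visually 20-22 d later against solvent-blank sprayed controls, 0 meaning no injury and 100 complete kill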
# common rice (ORYSA) = assay: Greenhouse postemergence trial, crop phytotoxicity (% visual injury); conditions: for % visual injury, Obs: ORYSA
# [5] = tested on: ivyleaf morningglory (Ipomoea hederacea, IPOHE); assay: Greenhouse postemergence trial, % visual injury
# [6] = tested on: nutsedge (Cyperus esculentus, CYPES); assay: Greenhouse postemergence trial, % visual injury; type: in vivo; conditions: for pest or weed control at 5 g/ha: Cyperus, post-emergence, 5 g ae/ha alone, 20-22 d, read-out: % visual injury Obs
# maize (ZEAMX) = assay: Greenhouse postemergence trial, crop phytotoxicity (% visual injury)
# [7] = tested on: velvetleaf (Abutilon theophrasti, ABUTH); assay: Greenhouse postemergence trial, % visual injury; type: in vivo; conditions: for % visual injury Obs: 5 g ae/ha alone, 20-22 d
# [8] = tested on: sunflower (Helianthus annus, HELAN); assay: Greenhouse postemergence trial, % visual injury; type: in vivo
# [9] = tested on: poinsettia (Euphorbia heterophylla, EPHHL); assay: Greenhouse postemergence trial, % visual injury; conditions: for pest or weed control at 5 g/ha: Euphorbia heterophylla, post-emergence, read-out: % visual injury Obs, 5 g ae/ha alone, 20-22 d
# [10] = tested on: wild buckwheat (Polygonum convolvulus, POLCO); assay: Greenhouse postemergence trial, % visual injury; type: in vivo; conditions: for % visual injury Obs: 5 g ae/ha alone, 20-22 d
# [11] = tested on: common chickweed (Stellaria media, STEME); assay: Greenhouse postemergence trial, % visual injury; type: in vivo; conditions: for % visual injury Obs: 5 g ae/ha alone, 20-22 d
# [12] = tested on: large crabgrass (Digitaria sanguinalis, DIGSA); assay: Greenhouse postemergence trial, % visual injury; type: in vivo; conditions: DIGSA, 5 g ae/ha
# [13] = tested on: pigweed (AMARE, Amaranthus retroflexus); assay: Greenhouse postemergence trial, % visual injury; type: in vivo; conditions: Amaranthus retroflexus, post-emergence; 5 g ae/ha alone; 20-22 d; read-out: % visual injury Obs
# [14] = tested on: grain sorghum (Sorghum vulgare, SORVU); assay: Greenhouse postemergence trial, % visual injury; type: in vivo; conditions: 5 g ae/ha alone; 20-22 d
# [15] = read-out: % visual injury (Obs)
smiles,measurement,setting,value
"O=C(O)COc1ccc(Cl)cc1Cl [2,4-D DMA, 2,4-D-dimethylammonium]",% visual injury (Obs),"[1]; 2,4-D DMA 400 g ae/ha",10%
same,plant injury at 400 g/ha,[2]; [15],85%
same,% visual injury (Obs),"winter wheat (TRZAW); 2,4-D DMA 400 g ae/ha",0%
same,% visual injury (Obs),"[3]; 2,4-D DMA 400 g ae/ha",65%
same,pest or weed control at 400 g/ha,"[4]; read-out: % visual injury (Obs), 2,4-D DMA 400 g ae/ha",70%
same,% visual injury (Obs),"common rice (ORYSA); 2,4-D DMA 400 g ae/ha",0%
same,% visual injury (Obs),"[5]; 2,4-D DMA 400 g ae/ha",80%
same,% visual injury (Obs),"[6]; 2,4-D DMA 400 g ae/ha",30%
same,% visual injury (Obs),"maize (ZEAMX); 2,4-D DMA 400 g ae/ha",0%
same,% visual injury (Obs),"[7]; 2,4-D DMA 400 g ae/ha",75%
same,% visual injury (Obs),"[8]; 2,4-D DMA 400 g ae/ha",80%
"O=C(O)CCCOc1ccc(Cl)cc1Cl [2,4-DB DMA, 4-DB-dimethylammonium (2,4-DB DMA)]",% visual injury (Obs),"[9]; 2,4-DB DMA 400 g ae/ha",10%
same,% visual injury (Obs),"[1]; 2,4-DB DMA 400 g ae/ha",10%
same,plant injury at 400 g/ha,[2]; [15],70%
same,% visual injury (Obs),"[10]; 2,4-DB DMA 400 g ae/ha",60%
same,% visual injury (Obs),"winter wheat (TRZAW); 2,4-DB DMA 400 g ae/ha",10%
same,pest or weed control at 400 g/ha,"[4]; read-out: % visual injury (Obs), 2,4-DB DMA 400 g ae/ha",40%
same,% visual injury (Obs),"common rice (ORYSA); 2,4-DB DMA 400 g ae/ha",0%
same,% visual injury (Obs),"[5]; 2,4-DB DMA 400 g ae/ha",70%
same,% visual injury (Obs),"[6]; 2,4-DB DMA 400 g ae/ha",0%
same,% visual injury (Obs),"maize (ZEAMX); 2,4-DB DMA 400 g ae/ha",0%
"Cc1cc(Cl)ccc1OCC(=O)O [MCPA DMA, MCPA-dimethylammonium]",plant injury at 400 g/ha,"[2]; read-out: % visual injury, Obs",95%
same,"% visual injury, Obs",winter wheat (TRZAW); 400 g ae/ha,0%
same,"% visual injury, Obs",[3]; 400 g ae/ha,30%
same,"% visual injury, Obs","[11]; STEME, 400 g ae/ha",20%
same,"% visual injury, Obs",[4]; 400 g ae/ha,65%
same,"% visual injury, Obs",common rice (ORYSA); 400 g ae/ha,0%
COc1c(Cl)ccc(-c2nc(C(=O)OCc3ccccc3)c(Cl)c(N)c2F)c1F [Rinskor ™],"% visual injury, Obs","[1]; KCHSC, 5 g ae/ha",50%
same,"% visual injury, Obs","[2]; BRSNN, 5 g ae/ha",20%
same,"% visual injury, Obs","[10]; POLCO, 5 g ae/ha",60%
same,"% visual injury, Obs",winter wheat (TRZAW); 5 g ae/ha,0%
same,"% visual injury, Obs",[3]; 5 g ae/ha,10%
same,"% visual injury, Obs",[4]; 5 g ae/ha,70%
same,"% visual injury, Obs",common rice (ORYSA); 5 g ae/ha,0%
same,"% visual injury, Obs","[6]; CYPES, 5 g ae/ha",70%
same,"% visual injury, Obs",[12],0%
same,"% visual injury, Obs","maize (ZEAMX); ZEAMX, 5 g ae/ha",0%
same,"% visual injury, Obs","[7]; ABUTH, 5 g ae/ha",80%
same,"% visual injury, Obs","[8]; HELAN, 5 g ae/ha",85%
COC(=O)c1nc(-c2ccc3scnc3c2)c(F)c(N)c1Cl [compound 8],pest or weed control at 5 g/ha,[9],84%
same,pest or weed control at 5 g/ha,[13],78%
same,plant injury at 5 g/ha,[2],63%
same,% visual injury Obs,winter wheat (TRZAW),5%
same,pest or weed control at 5 g/ha,[3],10%
same,% visual injury Obs,[11],45%
same,pest or weed control at 5 g/ha,[4],30%
same,% visual injury Obs,[7],20%
COC(=O)c1nc(-c2ccc3sccc3c2)c(F)c(N)c1Cl [compound 9],pest or weed control at 5 g/ha,[9],60%
same,plant injury at 5 g/ha,[2],10%
same,% visual injury Obs,[10],25%
same,% visual injury Obs,winter wheat (TRZAW),0%
same,pest or weed control at 5 g/ha,[3],15%
same,pest or weed control at 5 g/ha,[4],10%
same,pest or weed control at 5 g/ha,[6],0%
same,% visual injury Obs,"maize (ZEAMX); crop, 5 g ae/ha alone, 20-22 d",0%
Nc1c(F)c(-c2ccc3ccoc3c2)nc(C(=O)O)c1Cl [compound 10],pest or weed control at 5 g/ha,[9],75%
same,plant injury at 5 g/ha,[2],15%
same,% visual injury Obs,[14],5%
same,% visual injury Obs,[10],10%
same,% visual injury Obs,winter wheat (TRZAW),5%
same,pest or weed control at 5 g/ha,[3],25%
same,% visual injury Obs,[11],70%
same,pest or weed control at 5 g/ha,[4],15%
same,pest or weed control at 5 g/ha,[6],5%
same,% visual injury Obs,[7],15%
